In PubChem BioAssay AID248 (DTP/NCI, 2004) one finds T/C data, which are given here for 21 compounds.

Structures are written as SMILES. Several values for one entry are separate records, joined by “and”; a condition that tells them apart may be missing. Identical values can stand only once. Toxic doses and inconclusive results are not listed.

The test has as its system L1210 leukemia ip in BDF1 mice, survival T/C. The experiment in a line: NCI In Vivo Anticancer Drug Screen. Data for tumor model L1210 Leukemia (intraperitoneal) in B6D2F1 (BDF1) mice. Conditions: endpoint: mean survival time, higher = longer survival. The essentials: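 Tumor cells were implanted, animals were treated, and survival was followed. The result divides the treated measurement by the vehicle-control measurement.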

Setting [1] is: dose: 100.0 mg/kg/injection, schedule: Q01DX001 (ip), vehicle: Klucel (hydroxypropylcellulose) (HPC).
Where [2] appears, read: dose: 100.0 mg/kg/injection, schedule: Q01DX001 (ip), vehicle: saline.
Where [3] appears, read: dose: 200.0 mg/kg/injection, schedule: Q01DX001 (ip), vehicle: saline.
[4] abbreviates: dose: 400.0 mg/kg/injection, schedule: Q01DX001 (ip), vehicle: saline.
[5] abbreviates: dose: 100.0 mg/kg/injection, schedule: Q01DX009 (ip), vehicle: saline with Tween-80.
[6] abbreviates: dose: 200.0 mg/kg/injection, schedule: Q01DX009 (ip), vehicle: saline with Tween-80.
Setting [7] is: dose: 100.0 mg/kg/injection, schedule: Q01DX009 (ip), vehicle: saline.
Where [8] appears, read: dose: 200.0 mg/kg/injection, schedule: Q01DX009 (ip), vehicle: saline.
Setting [9] is: dose: 200.0 mg/kg/injection, schedule: Q01DX001 (ip), vehicle: Klucel (hydroxypropylcellulose) (HPC).
Setting [10] is: dose: 400.0 mg/kg/injection, schedule: Q01DX001 (ip), vehicle: Klucel (hydroxypropylcellulose) (HPC).
[11] abbreviates: dose: 100.0 mg/kg/injection, schedule: Q04DX003 (ip), vehicle: saline with Tween-80.
The mark [12] stands for this setting: dose: 100.0 mg/kg/injection, schedule: Q01DX009 (ip), vehicle: Klucel (hydroxypropylcellulose) (HPC).
[13] abbreviates: dose: 50.0 mg/kg/injection, schedule: Q01DX009 (ip), vehicle: saline.

Take `Cc1ccc(C)c(NC(=O)Nc2ccccc2Cl)c1`: the T/C is, setting by setting: (dose: 100.0 mg/kg/injection, schedule: Q01DX009 (ip), vehicle: gum acacia) 90 % of control; (dose: 100.0 mg/kg/injection, schedule: Q04DX003 (ip), vehicle: gum acacia) 93 % of control; (dose: 200.0 mg/kg/injection, schedule: Q01DX009 (ip), vehicle: gum acacia) 90 % of control; (dose: 200.0 mg/kg/injection, schedule: Q04DX003 (ip), vehicle: gum acacia) 91 % of control; (dose: 400.0 mg/kg/injection, schedule: Q01DX009 (ip), vehicle: gum acacia) 90 % of control; (dose: 400.0 mg/kg/injection, schedule: Q04DX003 (ip), vehicle: gum acacia) 94 % of control.

As to `C=C1CC(C)(c2ccccn2)OC1=O` (stereo not drawn), the T/C is 94 % of control (dose: 6.25 mg/kg/injection, schedule: Q04DX002 (ip), vehicle: Klucel (hydroxypropylcellulose) (HPC)); 102 % of control (dose: 12.5 mg/kg/injection, schedule: Q04DX002 (ip), vehicle: Klucel (hydroxypropylcellulose) (HPC)); 120 % of control (dose: 25.0 mg/kg/injection, schedule: Q01DX001 (ip), vehicle: Klucel (hydroxypropylcellulose) (HPC)); 110 % of control (dose: 25.0 mg/kg/injection, schedule: Q04DX002 (ip), vehicle: Klucel (hydroxypropylcellulose) (HPC)); 98 % of control under setting [1].

With `O=C(CCCC(=O)NNC(=O)Nc1cccc(Cl)c1)NNC(=O)Nc1cccc(Cl)c1`, the T/C was 96 % of control (dose: 50.0 mg/kg/injection, schedule: Q01DX001 (ip), vehicle: saline); 106 % of control under setting [2]; 106 % of control under setting [3]; 93 % of control under setting [4].

Take `S=P(c1ccccc1)(c1ccccc1)c1cccc2ccccc12`: the T/C reads like this: under setting [2], 100 % of control; under setting [3], 94 % of control; under setting [4], 94 % of control.

`O=[N+]([O-])c1ccc(S(=O)(=O)O)c([N+](=O)[O-])c1.[Ag]`: the T/C (dose: 3.12 mg/kg/injection, schedule: Q01DX009 (ip), vehicle: DMSO) is 95 % of control; the T/C (dose: 6.25 mg/kg/injection, schedule: Q01DX009 (ip), vehicle: DMSO) is 97 % of control; the T/C (dose: 12.5 mg/kg/injection, schedule: Q01DX009 (ip), vehicle: DMSO) was 95 % of control; the T/C (dose: 12.5 mg/kg/injection, schedule: Q01DX009 (ip), vehicle: other) is 93 % of control; the T/C (dose: 12.5 mg/kg/injection, schedule: Q04DX003 (ip), vehicle: other) is 104 % of control; the T/C (dose: 25.0 mg/kg/injection, schedule: Q04DX003 (ip), vehicle: other) was 98 % of control. Also, the T/C (dose: 50.0 mg/kg/injection, schedule: Q04DX003 (ip), vehicle: other) was 103 % of control.

As to `Cc1ccc(N=Nc2ccc(C)cc2NC(=O)c2c(Br)c(Br)c(Br)c(Br)c2C(=O)O)cc1`, the T/C was 93 % of control under setting [5] and 93 % of control under setting [6].

On to `COc1ccc(C(C#N)CC(=O)c2ccc3c(c2)OCO3)cc1OC` (stereo not drawn), for which the T/C was 104 % of control under setting [7]; 98 % of control (dose: 100.0 mg/kg/injection, schedule: Q04DX003 (ip), vehicle: saline); 104 % of control under setting [8]; 104 % of control (dose: 200.0 mg/kg/injection, schedule: Q04DX003 (ip), vehicle: saline); 97 % of control (dose: 400.0 mg/kg/injection, schedule: Q01DX009 (ip), vehicle: saline); 98 % of control (dose: 400.0 mg/kg/injection, schedule: Q04DX003 (ip), vehicle: saline).

As to `O=c1c(C(Cl)Cl)nc2ccccc2n1O`, the T/C by setting is: under setting [1], 95 % of control; under setting [9], 98 % of control; under setting [10], 101 % of control.

Regarding `CC1CCC(NC2=NCCO2)C(C)C1` (stereo not drawn), the T/C under setting [11] is 91 % of control.

As for `CN(C)CCCNCC(=O)Nc1ccc(S(=O)(=O)c2ccc([N+](=O)[O-])cc2)cc1`, the T/C (dose: 75.0 mg/kg/injection, schedule: Q01DX001 (ip), vehicle: saline) was 104 % of control and the T/C (dose: 150.0 mg/kg/injection, schedule: Q01DX001 (ip), vehicle: saline) is 104 % of control.

Take `CCOC(=O)c1ccc(OC(=O)Nc2ccc(OC)cc2OC)cc1`: the T/C under setting [12] is 101 % of control.

As for `Cc1nc(N)c(Cl)nc1C`, the T/C runs as follows: (dose: 50.0 mg/kg/injection, schedule: Q01DX009 (ip), vehicle: saline with Tween-80) 96 % of control; under setting [5], 100 % of control and 104 % of control; under setting [11], 102 % of control; under setting [6], 97 % of control and 98 % of control; (dose: 200.0 mg/kg/injection, schedule: Q04DX003 (ip), vehicle: saline with Tween-80) 96 % of control; (dose: 400.0 mg/kg/injection, schedule: Q04DX003 (ip), vehicle: saline with Tween-80) 88 % of control.

As to `C(=N\N1CCN(/N=C/c2cccc(OCc3ccccc3)c2)CC1)/c1cccc(OCc2ccccc2)c1`, the T/C reads like this: under setting [2], 96 % of control; under setting [3], 87 % of control; under setting [4], 90 % of control.

As for `Nc1ccn(C2OC(CO)C(O)C2OP(=O)(O)OCC2OC(n3ccc(=O)[nH]c3=O)CC2O)c(=O)n1` (stereo not drawn), the T/C under setting [13] was 153 % of control and the T/C under setting [7] is 166 % of control.

In the case of `CC(CCl)OP(=O)(Cc1ccccc1)OC(C)CCl` (stereo not drawn), the T/C was 91 % of control (dose: 100.0 mg/kg/injection, schedule: Q04DX002 (ip), vehicle: saline with Tween-80); 98 % of control (dose: 200.0 mg/kg/injection, schedule: Q04DX002 (ip), vehicle: saline with Tween-80); 98 % of control (dose: 400.0 mg/kg/injection, schedule: Q04DX002 (ip), vehicle: saline with Tween-80).

Turning to `CSc1ccc(NC(=O)Nc2c(C)cc(C)cc2C)cc1`, the T/C reads like this: (dose: 25.0 mg/kg/injection, schedule: Q01DX009 (ip), vehicle: other) 92 % of control; (dose: 50.0 mg/kg/injection, schedule: Q01DX009 (ip), vehicle: other) 93 % of control; (dose: 100.0 mg/kg/injection, schedule: Q01DX009 (ip), vehicle: other) 102 % of control.

For `CN1CN(c2ccccc2)C2(CCN(c3nc4ccccc4s3)CC2)C1=O`, the T/C is, setting by setting: under setting [1], 91 % of control; under setting [9], 94 % of control; under setting [10], 96 % of control.

For the compound `Cc1ccc(C(=O)O)cc1-n1c(-c2ccc(Cl)cc2)nnc1-c1ccc(Br)cc1`, the T/C (dose: 50.0 mg/kg/injection, schedule: Q01DX009 (ip), vehicle: Klucel (hydroxypropylcellulose) (HPC)) was 92 % of control; the T/C under setting [1] was 97 % of control; the T/C under setting [12] was 93 % of control; the T/C under setting [9] was 96 % of control; the T/C (dose: 200.0 mg/kg/injection, schedule: Q01DX009 (ip), vehicle: Klucel (hydroxypropylcellulose) (HPC)) was 93 % of control.

As to `CCCNS(=O)(=O)c1cccc(C(N)=S)c1`, the T/C was 101 % of control under setting [1], 100 % of control under setting [9] and 103 % of control under setting [10].

`CC(C)C(NCCNC(C(C)C)C(C)C)C(C)C`: the T/C reads like this: under setting [13], 106 % of control; under setting [7], 102 % of control; under setting [8], 106 % of control.

Turning to `O=C(CN1CCCCC1)N1CCN(C(=O)CN2CCCCC2)CC1`, the T/C is 98 % of control and 100 % of control (dose: 44.0 mg/kg/injection, schedule: Q01DX001 (ip), vehicle: carboxymethylcellulose (CMC)); 103 % of control (dose: 50.0 mg/kg/injection, schedule: Q01DX001 (ip), vehicle: carboxymethylcellulose (CMC)); 87 % of control and 91 % of control (dose: 67.0 mg/kg/injection, schedule: Q01DX001 (ip), vehicle: carboxymethylcellulose (CMC)); 96 % of control (dose: 100.0 mg/kg/injection, schedule: Q01DX001 (ip), vehicle: carboxymethylcellulose (CMC)); 91 % of control (dose: 150.0 mg/kg/injection, schedule: Q01DX001 (ip), vehicle: carboxymethylcellulose (CMC)); 113 % of control (dose: 200.0 mg/kg/injection, schedule: Q01DX001 (ip), vehicle: carboxymethylcellulose (CMC)). Besides, the T/C (dose: 400.0 mg/kg/injection, schedule: Q01DX001 (ip), vehicle: carboxymethylcellulose (CMC)) is 103 % of control.
